Source: article PMC11396667, “Design, Synthesis, and Anticancer and Antibacterial Activities of Quinoline-5-Sulfonamides” (Molecules, 2024)
≈ marks a conversion by molar mass, not a printed value.

What was measured:
[1] = system: methicillin-resistant S. aureus SA 3202; design: method as in PMID 25692135; conditions: isolate classified as vancomycin-susceptible (VA2-MRSA); ref [76]; cited from earlier work
[2] = system: methicillin-resistant S. aureus SA 630; design: method as in PMID 25692135; conditions: isolate classified as vancomycin-susceptible (VA2-MRSA); ref [76]; cited from earlier work
[3] = system: Staphylococcus aureus ATCC 29213; assay: MIC, microtitration broth method, SA; assay type: cell-based; conditions: ATCC29213, 24 h, 37 °C, CaMH broth
From the text: (§1) Since there is a general decrease in immunity during the treatment of oncological patients, i.e., patients are more susceptible to infectious diseases, it is advantageous if anticancer agents show antimicrobial properties at the same time. Therefore, the effects of the compounds were also investigated against Gram-positive bacteria. For this purpose, the susceptible collection strains of aerobic Staphylococcus aureus ATCC 29213 and facultatively aerobic Enterococcus faecalis ATCC 29212 and resistant clinical isolates of methicillin-resistant S. aureus (MRSA) SA 3202, SA 630 carrying the mecA gene, and vancomycin-resistant isolates of E. faecalis (VRE) 342B, 368, and 725B carrying the vanA gene were selected. Thus, the selection of the studied bacterial strains was adopted following the CLSI ([…]) international reference methodologies.
(§2) The in vitro antibacterial activity of the synthesized compounds was evaluated against representatives of multidrug-resistant bacteria, […] clinical isolates of methicillin-resistant S. aureus: clinical isolates of human origin, MRSA SA 3202, and MRSA SA 630 (National Institute of Public Health, Prague, Czech Republic), carrying the mecA gene. These two clinical isolates were classified as vancomycin-susceptible (but with a higher MIC of vancomycin equal to 2 μg/mL (VA2-MRSA). Vancomycin- and methicillin-susceptible S. aureus ATCC 29213 and vancomycin-susceptible Enterococcus faecalis ATCC 29212, obtained from the American Type Culture Collection, were used as the reference and quality control strains. Three vanA gene-carrying vancomycin-resistant isolates of E. faecalis (VRE 342B, VRE 368, VRE 725B) (Department of Infectious Diseases and Microbiology, Faculty of Veterinary Medicine, University of Veterinary Sciences Brno, Czech Republic) were provided by Oravcova et al..
(§3) The minimum inhibitory concentrations (MICs) were evaluated by the microtitration broth method according to the CLSI, with some modifications. The compounds were dissolved in DMSO (Sigma, St. Louis, MO, USA) to obtain a concentration of […] and diluted in a microtitration plate in an appropriate medium, i.e., Cation-Adjusted Mueller–Hinton Broth (CaMH, Oxoid, Basingstoke, UK) for staphylococci, and Brain Heart Infusion Broth (BHI, Oxoid) for enterococci to reach the final concentration of 256–0.125 µg/mL. Microtiter plates were inoculated with test microorganisms so that the final concentration of bacterial cells was 10^5. Ampicillin, oxacillin, and ciprofloxacin (Sigma) were used as reference drugs. A drug-free control and a sterility control were included. The plates were incubated for 24 h at 37 °C for staphylococci and enterococci. […] The experiments were repeated three times.

[4] = system: methicillin-resistant S. aureus SA 3202; assay: MIC, microtitration broth method, MRSA1; assay type: cell-based; conditions: Staphylococcus aureus; 24 h, 37 °C, CaMH broth
From the text: as §1, §2, §3

[5] = system: methicillin-resistant S. aureus SA 630; assay: MIC, microtitration broth method, MRSA2; assay type: cell-based; conditions: Staphylococcus aureus; 24 h, 37 °C, CaMH broth
From the text: as §1, §2, §3

[6] = system: Staphylococcus aureus ATCC 29213; assay: MBC, agar aliquot subculture method, SA; assay type: cell-based; conditions: ATCC29213, 99.9% decrease in CFU, 24 h, 37 °C
From the text: (§4) The activities of the individual derivatives were expressed as minimum inhibitory concentrations (MICs) and minimum bactericidal concentrations (MBCs) and are shown in Table 3 together with the values of the antibiotics used as standards for comparison. […] MBC values of bactericidal compounds are indicated in bold in Table 3.
(§5) For the above-mentioned strains/isolates, the agar aliquot subculture method was used as a test for bactericidal agents. After the MIC value determination, the inoculum was transferred to CaMH (Oxoid) for staphylococci, and BHI (Oxoid) for enterococci medium using a multipoint inoculator. The plates were incubated in a thermostat at 37 °C for 24 h. The lowest concentration of test compound at which ≤5 colonies were obtained was then evaluated as MBC, corresponding to a 99.9% decrease in CFU relative to the original inoculum.

[7] = system: methicillin-resistant S. aureus SA 3202; assay: MBC, agar aliquot subculture method, MRSA1; assay type: cell-based; conditions: Staphylococcus aureus; 99.9% decrease in CFU, 24 h, 37 °C
From the text: as §4, §5

[8] = system: methicillin-resistant S. aureus SA 630; assay: MBC, agar aliquot subculture method, MRSA2; assay type: cell-based; conditions: Staphylococcus aureus; 99.9% decrease in CFU, 24 h, 37 °C
From the text: as §4, §5

[9] = system: Enterococcus faecalis ATCC 29212; assay: MIC, microtitration broth method, EF; assay type: cell-based; conditions: ATCC29212, 24 h, 37 °C, BHI broth
From the text: as §1, §2, §3

[10] = system: Enterococcus faecalis ATCC 29212; assay: MBC, agar aliquot subculture method, EF; assay type: cell-based; conditions: ATCC29212, 99.9% decrease in CFU, 24 h, 37 °C
From the text: as §4, §5

S. aureus ATCC 29213 = assay: MTT assay of bacterial respiratory activity; assay type: cell-based, Staphylococcus aureus; conditions: S. aureus ATCC 29213
From the text: The MTT assay can be used to assess cell growth by measuring respiration. Bacterial cell respiratory activity (which is ultimately reflected in their viability) of less than 70% after exposure to the MIC values for each test compound is considered as a positive result for this test. This low level of cellular oxidative metabolism indicates inhibition of cell growth by inhibition of respiration. The lowest multiples of the MIC values by which inhibition of S. aureus ATCC 29213 viability [%] greater than 70% was achieved are shown in Table 4. […] Therefore, the antibacterial activity of the discussed compounds cannot be explained solely on the basis of respiration inhibition, so it is very difficult to draw a conclusion regarding the actual mechanism of action, since 8-HQs are multi-target agents, i.e., they affect several different targets at once (as discussed in the section dedicated to anticancer activity), which subsequently leads to the death of the treated resistant microorganisms.
Compounds were prepared as previously stated and diluted in CaMH broth for S. aureus to achieve the desired final concentrations. S. aureus bacterial suspension in sterile distilled water at 0.5 McFarland was diluted 1:3. Inocula were added to each well by multi-inoculator. Diluted mycobacteria in broth free from inhibiting compounds were used as the growth control. All compounds were prepared in duplicate. Plates were incubated at 37 °C for 24 h for S. aureus. After the incubation period, 10% well volume of MTT (3-(4,5-dimethylthiazol-2-yl)-2,5-diphenyltetrazolium bromide) reagent (Sigma) was mixed into each well and incubated at 37 °C 1 h for S. aureus. Then, 100 µL of 17% sodium dodecyl sulphate in 40% dimethylformamide was added to each well. The plates were read at 570 nm. The absorbance readings from the cells grown in the presence of the tested compounds were compared with uninhibited cell growth to determine the relative percent inhibition. The percent inhibition was determined through MTT assay. The percent viability is calculated through the comparison of a measured value and that of the uninhibited control: % viability = OD570E/OD570P × 100, where OD570E is the reading from the compound-exposed cells, while OD570P is the reading from the uninhibited cells (positive control). Cytotoxic potential is determined by a percent viability of <70% [81, 82].

MIC [9] [µM] | Conc.: lowest multiple of MIC with at least 70% inhibition of respiratory activity (S. aureus ATCC 29213) | Compound | MIC of vancomycin, MRSA SA 3202 [1] [µg/mL] | MIC of vancomycin, MRSA SA 630 [2] [µg/mL] | MIC [3] [µM] | MIC [4] [µM] | MIC [5] [µM] | MBC [6] [µM] | MBC [7] [µM] | MBC [8] [µM] | MBC [10] [µM]
– | – | CN[C@H](CC(C)C)C(=O)N[C@H]1C(=O)N[C@@H](CC(N)=O)C(=O)N[C@H]2C(=O)N[C@H]3C(=O)N[C@H](C(=O)N[C@H](C(=O)O)c4cc(O)cc(O)c4-c4cc3ccc4O)[C@H](O)c3ccc(c(Cl)c3)Oc3cc2cc(c3O[C@@H]2O[C@H](CO)[C@@H](O)[C@H](O)[C@H]2O[C@H]2C[C@](C)(N)[C@H](O)[C@H](C)O2)Oc2ccc(cc2Cl)[C@H]1O [vancomycin] | 2 | 2 | – | – | – | – | – | – | –
– | – | Cc1onc(-c2ccccc2)c1C(=O)N[C@@H]1C(=O)N2[C@@H]1SC(C)(C)[C@@H]2C(=O)O [OXA, oxacillin, reference compound] | – | – | 1.25 (≈ 0.502 µg/mL) | 79.8 (≈ 32 µg/mL) | 29.7 (≈ 11.9 µg/mL) | 1.25 (≈ 0.502 µg/mL) | 79.8 (≈ 32 µg/mL) | 29.7 (≈ 11.9 µg/mL) | –
2.81 (≈ 0.982 µg/mL) | 16× MIC (>16× MBC) | CC1(C)S[C@@H]2[C@H](NC(=O)[C@H](N)c3ccccc3)C(=O)N2[C@H]1C(=O)O [AMP, ampicillin, reference compound] | – | – | 5.72 (≈ 2 µg/mL) | > 45.8 | > 45.8 | 5.72 (≈ 2 µg/mL) | > 45.8 | > 45.8 | 2.81 (≈ 0.982 µg/mL)
